Source: patent publication US12077503B2, “Substituted cyclic amides and their use as herbicides” (FMC CORPORATION, priority 2015, dated 2024)

Experiments:
Assay type in all cases: in vivo
[1] = test system: ivy-leaved morning glory (Ipomoea hederacea); assay: Test G Post-Emergence Protocol; conditions: Ipomoea, post-emergence, 312 h, read-out: Morningglory, Ivy-leaved damage rating; for pest or weed control at 15.625 g/ha: 15.625 g ai/ha, evaluated after 13 days (100=total damage to plant; 0=no damage to plant); for pest or weed control at 62.5 g/ha: 62.5 g ai/ha; for pest or weed control at 62.5 g/ha / pest or weed control at 250 g/ha: evaluated after 13 days, 100=total damage to plant, 0=no damage to plant; for pest or weed control at 250 g/ha: 250 g ai/ha
How it was run: (§1)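 Seedlings grown 8 days in soil in a glasshouse (24/16 °C day/night, 14 h light, 65% humidity) were sprayed post-emergence with compound in acetone/water 50:50 plus 0.5% Tween 20 at 15.625, 62.5 or 250 g/ha. Damage was scored after 13 days on a 0–100 scale (100 = total damage).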

[2] = test system: velvetleaf (Abutilon theophrasti); assay: Test G Post-Emergence Protocol; conditions: Abutilon theophrasti, post-emergence, 312 h, read-out: Velvetleaf damage rating; for pest or weed control at 15.625 g/ha: 15.625 g ai/ha, evaluated after 13 days (100=total damage to plant; 0=no damage to plant); for pest or weed control at 62.5 g/ha: 62.5 g ai/ha; for pest or weed control at 62.5 g/ha / pest or weed control at 250 g/ha: evaluated after 13 days, 100=total damage to plant, 0=no damage to plant; for pest or weed control at 250 g/ha: 250 g ai/ha
How it was run: as §1

[3] = test system: barnyardgrass (Echinochloa crus-galli); assay: Test G Post-Emergence Protocol; conditions: Echinochloa crus-galli, post-emergence, 312 h, read-out: Barnyardgrass damage rating; for pest or weed control at 15.625 g/ha: 15.625 g ai/ha, evaluated after 13 days (100=total damage to plant; 0=no damage to plant); for pest or weed control at 62.5 g/ha: 62.5 g ai/ha; for pest or weed control at 62.5 g/ha / pest or weed control at 250 g/ha: evaluated after 13 days, 100=total damage to plant, 0=no damage to plant; for pest or weed control at 250 g/ha: 250 g ai/ha
How it was run: as §1

[4] = test system: giant foxtail (Setaria faberi); assay: Test G Post-Emergence Protocol; conditions: Setaria faberi, post-emergence, 312 h, read-out: Foxtail, Giant damage rating; for pest or weed control at 15.625 g/ha: 15.625 g ai/ha, evaluated after 13 days (100=total damage to plant; 0=no damage to plant); for pest or weed control at 62.5 g/ha: 62.5 g ai/ha; for pest or weed control at 62.5 g/ha / pest or weed control at 250 g/ha: evaluated after 13 days, 100=total damage to plant, 0=no damage to plant; for pest or weed control at 250 g/ha: 250 g ai/ha
How it was run: as §1

corn (Zea mays) [5] = assay: Test G Post-Emergence Protocol; conditions: Zea mays, post-emergence, 312 h, read-out: Corn damage rating; for plant injury at 15.625 g/ha: 15.625 g ai/ha, evaluated after 13 days (100=total damage to plant; 0=no damage to plant); for plant injury at 62.5 g/ha: 62.5 g ai/ha; for plant injury at 62.5 g/ha / plant injury at 250 g/ha: evaluated after 13 days, 100=total damage to plant, 0=no damage to plant; for plant injury at 250 g/ha: 250 g ai/ha
How it was run: as §1

[6] = test system: redroot pigweed (Amaranthus retroflexus); assay: Test G Post-Emergence Protocol; conditions: Amaranthus retroflexus, post-emergence, 312 h, read-out: Pigweed, Redroot damage rating; for pest or weed control at 15.625 g/ha: 15.625 g ai/ha, evaluated after 13 days (100=total damage to plant; 0=no damage to plant); for pest or weed control at 62.5 g/ha: 62.5 g ai/ha; for pest or weed control at 62.5 g/ha / pest or weed control at 250 g/ha: evaluated after 13 days, 100=total damage to plant, 0=no damage to plant; for pest or weed control at 250 g/ha: 250 g ai/ha
How it was run: as §1

[7] = test system: ivy-leaved morning glory (Ipomoea hederacea); assay: Test G Pre-Emergence Protocol; conditions: Ipomoea, pre-emergence, 312 h, evaluated after 13 days; for pest or weed control at 15.625 g/ha: 15.625 g ai/ha; for pest or weed control at 15.625 g/ha / pest or weed control at 250 g/ha: read-out: Morningglory, Ivy-leaved damage rating (100=total damage to plant; 0=no damage to plant); for pest or weed control at 62.5 g/ha: 62.5 g ai/ha, 100=total damage to plant, 0=no damage to plant, read-out: Morningglory, Ivy-leaved damage rating; for pest or weed control at 250 g/ha: 250 g ai/ha
How it was run: (§2)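 Pots of seeds in standard soil were grown for one day in a glasshouse (24/16 °C day/night, 14 h light, 65% humidity), then sprayed with compound in acetone/water 50:50 with 0.5% Tween 20 at 15.625, 62.5 or 250 g/ha. Damage was scored after 13 days on a 0 (none) to 100 (total) scale.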

[8] = test system: velvetleaf (Abutilon theophrasti); assay: Test G Pre-Emergence Protocol; conditions: Abutilon theophrasti, pre-emergence, 312 h, evaluated after 13 days; for pest or weed control at 15.625 g/ha: 15.625 g ai/ha; for pest or weed control at 15.625 g/ha / pest or weed control at 250 g/ha: read-out: Velvetleaf damage rating (100=total damage to plant; 0=no damage to plant); for pest or weed control at 62.5 g/ha: 62.5 g ai/ha, 100=total damage to plant, 0=no damage to plant, read-out: Velvetleaf damage rating; for pest or weed control at 250 g/ha: 250 g ai/ha
How it was run: as §2

[9] = test system: barnyardgrass (Echinochloa crus-galli); assay: Test G Pre-Emergence Protocol; conditions: Echinochloa crus-galli, pre-emergence, 312 h, evaluated after 13 days; for pest or weed control at 15.625 g/ha: 15.625 g ai/ha; for pest or weed control at 15.625 g/ha / pest or weed control at 250 g/ha: read-out: Barnyardgrass damage rating (100=total damage to plant; 0=no damage to plant); for pest or weed control at 62.5 g/ha: 62.5 g ai/ha, 100=total damage to plant, 0=no damage to plant, read-out: Barnyardgrass damage rating; for pest or weed control at 250 g/ha: 250 g ai/ha
How it was run: as §2

[10] = test system: giant foxtail (Setaria faberi); assay: Test G Pre-Emergence Protocol; conditions: Setaria faberi, pre-emergence, 312 h, evaluated after 13 days; for pest or weed control at 15.625 g/ha: 15.625 g ai/ha; for pest or weed control at 15.625 g/ha / pest or weed control at 250 g/ha: read-out: Foxtail, Giant damage rating (100=total damage to plant; 0=no damage to plant); for pest or weed control at 62.5 g/ha: 62.5 g ai/ha, 100=total damage to plant, 0=no damage to plant, read-out: Foxtail, Giant damage rating; for pest or weed control at 250 g/ha: 250 g ai/ha
How it was run: as §2

corn (Zea mays) [11] = assay: Test G Pre-Emergence Protocol; conditions: Zea mays, pre-emergence, 312 h, evaluated after 13 days; for plant injury at 15.625 g/ha: 15.625 g ai/ha; for plant injury at 15.625 g/ha / plant injury at 250 g/ha: read-out: Corn damage rating (100=total damage to plant; 0=no damage to plant); for plant injury at 62.5 g/ha: 62.5 g ai/ha, 100=total damage to plant, 0=no damage to plant, read-out: Corn damage rating; for plant injury at 250 g/ha: 250 g ai/ha
How it was run: as §2

[12] = test system: redroot pigweed (Amaranthus retroflexus); assay: Test G Pre-Emergence Protocol; conditions: Amaranthus retroflexus, pre-emergence, 312 h, evaluated after 13 days; for pest or weed control at 15.625 g/ha: 15.625 g ai/ha; for pest or weed control at 15.625 g/ha / pest or weed control at 250 g/ha: read-out: Pigweed, Redroot damage rating (100=total damage to plant; 0=no damage to plant); for pest or weed control at 62.5 g/ha: 62.5 g ai/ha, 100=total damage to plant, 0=no damage to plant, read-out: Pigweed, Redroot damage rating; for pest or weed control at 250 g/ha: 250 g ai/ha
How it was run: as §2

| Structure (SMILES) | pest or weed control at 15.625 g/ha [1] [%] | pest or weed control at 62.5 g/ha [1] [%] | pest or weed control at 250 g/ha [1] [%] | pest or weed control at 15.625 g/ha [2] [%] | pest or weed control at 62.5 g/ha [2] [%] | pest or weed control at 250 g/ha [2] [%] | pest or weed control at 15.625 g/ha [3] [%] | pest or weed control at 62.5 g/ha [3] [%] | pest or weed control at 250 g/ha [3] [%] | pest or weed control at 15.625 g/ha [4] [%] | pest or weed control at 62.5 g/ha [4] [%] | pest or weed control at 250 g/ha [4] [%] | plant injury at 15.625 g/ha (corn (Zea mays) [5]) [%] | plant injury at 62.5 g/ha (corn (Zea mays) [5]) [%] | plant injury at 250 g/ha (corn (Zea mays) [5]) [%] | pest or weed control at 15.625 g/ha [6] [%] | pest or weed control at 62.5 g/ha [6] [%] | pest or weed control at 250 g/ha [6] [%] | pest or weed control at 15.625 g/ha [7] [%] | pest or weed control at 62.5 g/ha [7] [%] | other results |
| --- | --- | --- | --- | --- | --- | --- | --- | --- | --- | --- | --- | --- | --- | --- | --- | --- | --- | --- | --- | --- | --- |
| CN1C[C@H](c2ccc(C#N)c(C(F)(F)F)c2)[C@@H](C(=O)Nc2ccccc2S(C)(=O)=O)C1=O (racemic) [Compound 1796] | 0 | 10 | 10 | 0 | 0 | 0 | 0 | 0 | 0 | 0 | 0 | 0 | 0 | 0 | 0 | 0 | 10 | 20 | 0 | 0 | pest or weed control at 250 g/ha [7]: 0%; pest or weed control at 15.625 g/ha [8]: 0%; pest or weed control at 62.5 g/ha [8]: 0%; pest or weed control at 250 g/ha [8]: 10%; pest or weed control at 15.625 g/ha [9]: 0%; pest or weed control at 62.5 g/ha [9]: 0%; pest or weed control at 250 g/ha [9]: 0%; pest or weed control at 15.625 g/ha [10]: 0%; pest or weed control at 62.5 g/ha [10]: 0%; pest or weed control at 250 g/ha [10]: 0%; plant injury at 15.625 g/ha (corn (Zea mays) [11]): 0%; plant injury at 62.5 g/ha (corn (Zea mays) [11]): 0%; plant injury at 250 g/ha (corn (Zea mays) [11]): 0%; pest or weed control at 15.625 g/ha [12]: 0%; pest or weed control at 62.5 g/ha [12]: 0%; pest or weed control at 250 g/ha [12]: 20% |
| CN1C[C@H](c2cc(Cl)cc(C(F)(F)F)c2)[C@@H](C(=O)Nc2ccccc2S(C)(=O)=O)C1=O (racemic) [Compound 1797] | 0 | 40 | 80 | 60 | 80 | 90 | 30 | 70 | 80 | 50 | 80 | 80 | 10 | 60 | 70 | 30 | 70 | 80 | 0 | 10 | pest or weed control at 250 g/ha [7]: 20%; pest or weed control at 15.625 g/ha [8]: 0%; pest or weed control at 62.5 g/ha [8]: 20%; pest or weed control at 250 g/ha [8]: 70%; pest or weed control at 15.625 g/ha [9]: 40%; pest or weed control at 62.5 g/ha [9]: 60%; pest or weed control at 250 g/ha [9]: 80%; pest or weed control at 15.625 g/ha [10]: 60%; pest or weed control at 62.5 g/ha [10]: 80%; pest or weed control at 250 g/ha [10]: 90%; plant injury at 15.625 g/ha (corn (Zea mays) [11]): 10%; plant injury at 62.5 g/ha (corn (Zea mays) [11]): 50%; plant injury at 250 g/ha (corn (Zea mays) [11]): 70%; pest or weed control at 15.625 g/ha [12]: 0%; pest or weed control at 62.5 g/ha [12]: 0%; pest or weed control at 250 g/ha [12]: 60% |
